From PubChem BioAssay AID1963836 (Molecular Pharmacology Branch, DTP, NCI, 2024)

Tested on: 857933-349-R-J2-PDC complex spheroid viability
Assay: Anticancer human tumor 857933-349-R-J2-PDC patient-derived colon adenocarcinoma cell line growth inhibition [POLQ]
Conditions: for viability, T/C: stronger effect = lower value
Experimental: Multicellular complex tumor spheroid response to Polymerase (POL) inhibitors (novobiocin, ART-558, RP6685) in combination with a variety of drugs and investigational agents in selected tumor cell lines
The POL inhibitors (novobiocin, ART-558, and RP6685) were evaluated both individually and in combination with standard of care and investigational anticancer small molecules within a complex spheroid model of solid tumors. . Complex spheroids include a stromal component modeled by human endothelial cells (HUVEC) and fibroblasts modeled by human mesenchymal stem cells (MSCs). The concentration ranges selected for each drug and investigational agent were based upon clinically achievable concentrations if the clinical Cmax of the agent was known.
Compounds. The drugs and investigational agents: novobiocin (NSC847541), ART-558 (NSC835418), RP-6685 (NSC848927), peposertib (NSC802822), ceralasertib (NSC780249), elimusertib (NSC800525), camonsertib (NSC841442), AZD-1390 (NSC803789), olaparib (NSC753686), talazoparib (NSC767125), rucaparib (NSC756644), sotorasib (NSC818433), MRTX-1133 (NSC836407), SN-38 (NSC673596), topotecan (NSC609699), epotoside (NSC141540), doxorubicin (NSC123127), gemcitabine (NSC613327), 5-fluorouracil (NSC19893), paclitaxel (NSC125973), vemurafenib (NSC761431), MSA-2 (NSC828583), SN-011 (NSC837082), adavosertib (NSC754352), prexasertib (NSC758257), carboplatin (NSC241240) and oxaliplatin (NSC266046), were obtained from the National Cancer Institute (NCI) Developmental Therapeutics Program Chemical Repository (21). The FDA-approved anticancer drug set is available from the Developmental Therapeutics Program at https://dtp.cancer.gov/organization/dscb/obtaining/. […] The stock solutions were prepared in dimethyl sulfoxide (DMSO, Sigma-Aldrich, St. Louis, MO, cat. D2650), except for the platinum compounds which were prepared in saline (Quality Biological, Gaithersburg, MD, cat. 114-055-101), at 800-fold the tested concentration and stored at -70 degrees C prior to their use. All drugs and investigational agents were tested over a range starting from a high concentration at or near the clinical Cmax and decreasing in half-log increments. If the clinical Cmax for an agent had not been determined, the highest concentration tested was 10 microM, except for SN-38, which was tested at a high concentration of 1 microM.
Cell Culture. All cells were maintained in an incubator at 37 degrees C and 5% CO2 with 95% humidity. The PDC lines were cultured according to standard operating procedures established by the NCI PDMR (https://pdmr.cancer.gov). Table 3 of the manuscript, lists the cell lines along with the number of the three cell types plated to form the mct-spheroids and media for tumor cell growth. After thawing, all PDC lines, except 997537-175-T-J1-PDC and 415267-285-R-J2-PDC, were cultured in Matrigel-coated flasks prepared with a working solution of 1X Ham's F-12 nutrient mix, without supplementation (Thermo Fisher Scientific, cat. 11765054), 100 U/mL penicillin-streptomycin (Thermo Fisher Scientific, cat. 15140122), and 2.5% Matrigel (Corning Inc., Corning, NY, cat. 354248) for the first three passages. The two PDC lines 997537-175-T-J1-PDC and 415267-285-R-J2-PDC were cultured on uncoated flasks. The 857933-349-R-J2-PDC line was cultured in 6C/Colon 1B media containing advanced DMEM/F-12 (Thermo Fisher Scientific, cat. 12634028), 10 mM HEPES (Thermo Fisher Scientific, cat. 15630080), 1X GlutaMAX supplement (Thermo Fisher Scientific, cat. 35050061), 0.1 mg/mL primocin (InvivoGen, San Diego, CA, cat. ant-pm-2), 10% defined fetal bovine serum, heat inactivated (HyClone Laboratories Inc., Logan, UT, cat. SH30070.03HI), 50% L-WRN conditioned media (ATCC, cat. CRL-3276), 1.25 mM N-Acetyl-L-cysteine (Sigma-Aldrich, cat. A9165), 10 mM nicotinamide (Sigma-Aldrich, cat. N0636), 1X B-27 supplement (Thermo Fisher Scientific, cat. 17504044), 1X N-2 supplement (Thermo Fisher Scientific, cat. […]

[1] = curve of first compound, second compound 0.0316 µM
[2] = curve of first compound, second compound 0.1 µM
[3] = curve of first compound, second compound 0.316 µM
[4] = curve of first compound, second compound 1 µM
[5] = curve of first compound, second compound 3.16 µM
[6] = curve of first compound, second compound 10 µM
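Also: spheroids exposed to compounds for seven days before readout.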

SMILES: CC(=O)O[C@H]1C(=O)[C@@]2(C)[C@H]([C@H](OC(=O)c3ccccc3)[C@]3(O)C[C@H](OC(=O)[C@H](O)[C@@H](NC(=O)c4ccccc4)c4ccccc4)C(C)=C1C3(C)C)[C@]1(OC(C)=O)CO[C@@H]1C[C@@H]2O + COC1C(OC(N)=O)C(O)C(Oc2ccc3c(O)c(NC(=O)c4ccc(O)c(CC=C(C)C)c4)c(=O)oc3c2C)OC1(C)C
- IC50 [1]: < 0.00949 µM
- IC50 [2]: 0.0146 µM
- IC50 [3]: 0.0132 µM
- IC50 [4]: 0.0122 µM
- IC50 [5]: 0.00976 µM
- IC50 [6]: 0.0113 µM
- viability, T/C (second compound 0.0316 µM, first compound 0.00949 µM): 48.7%
- viability, T/C (second compound 0.0316 µM, first compound 0.03 µM): 25%
- viability, T/C (second compound 0.0316 µM, first compound 0.0949 µM): 19.1%
- viability, T/C (second compound 0.0316 µM, first compound 0.3 µM): 17.6%
- viability, T/C (second compound 0.0316 µM, first compound 0.949 µM): 15.8%
- viability, T/C (second compound 0.0316 µM, first compound 3 µM): 20.8%
- viability, T/C (second compound 0.1 µM, first compound 0.00949 µM): 61%
- viability, T/C (second compound 0.1 µM, first compound 0.03 µM): 31.7%
- viability, T/C (second compound 0.1 µM, first compound 0.0949 µM): 15.2%
- viability, T/C (second compound 0.1 µM, first compound 0.3 µM): 15.4%
- viability, T/C (second compound 0.1 µM, first compound 0.949 µM): 15.1%
- viability, T/C (second compound 0.1 µM, first compound 3 µM): 16.5%
- viability, T/C (second compound 0.316 µM, first compound 0.00949 µM): 57.8%
- viability, T/C (second compound 0.316 µM, first compound 0.03 µM): 30.2%
- viability, T/C (second compound 0.316 µM, first compound 0.0949 µM): 15.7%
- viability, T/C (second compound 0.316 µM, first compound 0.3 µM): 19.7%
- viability, T/C (second compound 0.316 µM, first compound 0.949 µM): 13.8%
- viability, T/C (second compound 0.316 µM, first compound 3 µM): 25.4%
- viability, T/C (second compound 1 µM, first compound 0.00949 µM): 58.7%
- viability, T/C (second compound 1 µM, first compound 0.03 µM): 19.7%
- viability, T/C (second compound 1 µM, first compound 0.0949 µM): 12.8%
- viability, T/C (second compound 1 µM, first compound 0.3 µM): 20.5%
- viability, T/C (second compound 1 µM, first compound 0.949 µM): 16.1%
- viability, T/C (second compound 1 µM, first compound 3 µM): 20.3%
- viability, T/C (second compound 3.16 µM, first compound 0.00949 µM): 50.7%
- viability, T/C (second compound 3.16 µM, first compound 0.03 µM): 21.3%
- viability, T/C (second compound 3.16 µM, first compound 0.0949 µM): 15.2%
- viability, T/C (second compound 3.16 µM, first compound 0.3 µM): 16.4%
- viability, T/C (second compound 3.16 µM, first compound 0.949 µM): 16.4%
- viability, T/C (second compound 3.16 µM, first compound 3 µM): 19.3%
- viability, T/C (second compound 10 µM, first compound 0.00949 µM): 54.5%
- viability, T/C (second compound 10 µM, first compound 0.03 µM): 25.5%
- viability, T/C (second compound 10 µM, first compound 0.0949 µM): 18.3%
- viability, T/C (second compound 10 µM, first compound 0.3 µM): 17.4%
- viability, T/C (second compound 10 µM, first compound 0.949 µM): 15.7%
- viability, T/C (second compound 10 µM, first compound 3 µM): 20.7%

SMILES: CC1COCCN1c1cc(C2(S(C)(=N)=O)CC2)nc(-c2ccnc3[nH]ccc23)n1 (configuration not stated) + COC1C(OC(N)=O)C(O)C(Oc2ccc3c(O)c(NC(=O)c4ccc(O)c(CC=C(C)C)c4)c(=O)oc3c2C)OC1(C)C
- IC50 [1]: 4.83 µM
- IC50 [2]: 4.54 µM
- IC50 [3]: 4.01 µM
- IC50 [4]: 4.46 µM
- IC50 [5]: 4.77 µM
- IC50 [6]: 4.93 µM
- viability, T/C (second compound 0.0316 µM, first compound 0.0316 µM): 105%
- viability, T/C (second compound 0.0316 µM, first compound 0.1 µM): 107%
- viability, T/C (second compound 0.0316 µM, first compound 0.316 µM): 80.2%
- viability, T/C (second compound 0.0316 µM, first compound 1 µM): 77.6%
- viability, T/C (second compound 0.0316 µM, first compound 3.16 µM): 70.1%
- viability, T/C (second compound 0.0316 µM, first compound 10 µM): 27.7%
- viability, T/C (second compound 0.1 µM, first compound 0.0316 µM): 85.6%
- viability, T/C (second compound 0.1 µM, first compound 0.1 µM): 84.5%
- viability, T/C (second compound 0.1 µM, first compound 0.316 µM): 73.7%
- viability, T/C (second compound 0.1 µM, first compound 1 µM): 73.3%
- viability, T/C (second compound 0.1 µM, first compound 3.16 µM): 57.2%
- viability, T/C (second compound 0.1 µM, first compound 10 µM): 34.2%
- viability, T/C (second compound 0.316 µM, first compound 0.0316 µM): 84.9%
- viability, T/C (second compound 0.316 µM, first compound 0.1 µM): 86.1%
- viability, T/C (second compound 0.316 µM, first compound 0.316 µM): 74.7%
- viability, T/C (second compound 0.316 µM, first compound 1 µM): 77.8%
- viability, T/C (second compound 0.316 µM, first compound 3.16 µM): 53.6%
- viability, T/C (second compound 0.316 µM, first compound 10 µM): 33%
- viability, T/C (second compound 1 µM, first compound 0.0316 µM): 101%
- viability, T/C (second compound 1 µM, first compound 0.1 µM): 98.7%
- viability, T/C (second compound 1 µM, first compound 0.316 µM): 79.1%
- viability, T/C (second compound 1 µM, first compound 1 µM): 72.1%
- viability, T/C (second compound 1 µM, first compound 3.16 µM): 55.2%
- viability, T/C (second compound 1 µM, first compound 10 µM): 37.9%
- viability, T/C (second compound 3.16 µM, first compound 0.0316 µM): 94.6%
- viability, T/C (second compound 3.16 µM, first compound 0.1 µM): 89.5%
- viability, T/C (second compound 3.16 µM, first compound 0.316 µM): 97%
- viability, T/C (second compound 3.16 µM, first compound 1 µM): 86.4%
- viability, T/C (second compound 3.16 µM, first compound 3.16 µM): 57.2%
- viability, T/C (second compound 3.16 µM, first compound 10 µM): 37.2%
- viability, T/C (second compound 10 µM, first compound 0.0316 µM): 118%
- viability, T/C (second compound 10 µM, first compound 0.1 µM): 79.4%
- viability, T/C (second compound 10 µM, first compound 0.316 µM): 85.7%
- viability, T/C (second compound 10 µM, first compound 1 µM): 77.2%
- viability, T/C (second compound 10 µM, first compound 3.16 µM): 55.7%
- viability, T/C (second compound 10 µM, first compound 10 µM): 38.6%

SMILES: Cc1cccc(N(C)C(=O)C2C(O)CCN2c2nc(C)cc(C(F)(F)F)c2C#N)c1 (configuration not stated)
- viability, T/C (compound 0.0316 µM): 96.2% [middle of 13 runs]
- IC50 (compound alone, run of 01/08/2024): > 10 µM
- IC50 (compound alone, run of 01/19/2024): > 10 µM
